# From ChEMBL document CHEMBL1156216, “Amide-based inhibitors of p38alpha MAP kinase. Part 2: design, synthesis and SAR of potent N-pyrimidyl amides” (Bioorg Med Chem Lett, 2010)
# What was measured:
# [1] = molecular target: Mitogen-activated protein kinase 14 (Homo sapiens, UniProt Q16539); experiment: Inhibition of human p38alpha assessed as gamma-[32P]ATP incorporation after 60 mins by scintillation counting
# [2] = system: Blood; experiment: Antiinflammatory activity against LPS-induced TNFalpha production in human diluted whole blood administered 15 mins before LPS treatment after 2 hrs by ELISA; type: functional, tissue-based
# [3] = molecular target: Cytochrome P450 3A4 (Homo sapiens, UniProt P08684); experiment: Inhibition of CYP3A4 after 30 mins by fluorescence assay; type: ADME; conditions: read-out: INH
# Cytochrome P450 3A4, sequence (P08684 whole entry): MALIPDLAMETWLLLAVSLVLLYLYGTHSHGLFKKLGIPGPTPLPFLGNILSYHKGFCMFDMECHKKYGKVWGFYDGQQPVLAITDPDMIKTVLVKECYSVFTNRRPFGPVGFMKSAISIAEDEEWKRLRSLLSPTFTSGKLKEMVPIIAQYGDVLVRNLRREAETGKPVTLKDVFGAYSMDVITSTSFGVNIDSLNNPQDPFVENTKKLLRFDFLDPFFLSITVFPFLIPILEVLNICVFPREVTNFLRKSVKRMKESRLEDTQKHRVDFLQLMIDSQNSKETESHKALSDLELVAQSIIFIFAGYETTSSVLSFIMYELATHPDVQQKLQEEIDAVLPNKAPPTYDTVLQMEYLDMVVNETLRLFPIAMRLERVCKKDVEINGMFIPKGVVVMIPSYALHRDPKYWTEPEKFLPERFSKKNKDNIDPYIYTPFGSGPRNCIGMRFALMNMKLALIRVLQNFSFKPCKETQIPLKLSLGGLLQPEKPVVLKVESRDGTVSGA
# Mitogen-activated protein kinase 14, sequence (Q16539 whole entry): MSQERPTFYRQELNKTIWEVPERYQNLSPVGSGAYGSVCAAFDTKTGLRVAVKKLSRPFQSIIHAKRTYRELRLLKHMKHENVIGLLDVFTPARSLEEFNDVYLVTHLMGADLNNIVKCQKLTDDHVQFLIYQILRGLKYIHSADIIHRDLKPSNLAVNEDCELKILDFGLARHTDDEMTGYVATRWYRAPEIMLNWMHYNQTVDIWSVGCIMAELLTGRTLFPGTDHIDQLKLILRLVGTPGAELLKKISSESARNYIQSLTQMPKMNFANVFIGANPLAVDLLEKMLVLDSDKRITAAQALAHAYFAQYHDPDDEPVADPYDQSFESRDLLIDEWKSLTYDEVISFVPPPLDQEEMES
SMILES,IC50 [1] [nM],IC50 [2] [nM],IC50 [3] [nM]
C[C@@H](CO)Nc1nccc(N(CCCCN)C(=O)c2ccc3c(c2)CCO3)n1,310,2940,11700
CCN(C(=O)c1cccc(C(F)(F)F)c1)c1ccnc(N[C@@H](C)c2ccccc2)n1,64,> 1000,–
CCN(C(=O)c1ccccc1)c1ccnc(N[C@@H](C)c2ccccc2)n1,193,> 10000,–
NCCCCN(C(=O)c1ccc2c(c1)CCO2)c1ccnc(NC2CCC(O)CC2)n1 (stereo not drawn),11,865,> 20000
CCN(C(=O)c1ccc2ccccc2c1)c1ccnc(N[C@@H](C)c2ccccc2)c1,–,> 1000,–
NC1CCC(Nc2nccc(N(CC3CCNCC3)C(=O)c3ccc4c(c3)CCO4)n2)CC1 (stereo not drawn),400,> 10000,> 20000
CCN(C(=O)c1cc(C)ccc1F)c1ccnc(N[C@@H](C)c2ccccc2)n1,26,58,–
CCN(C(=O)c1cn(C)c2ccccc12)c1ccnc(N[C@@H](C)c2ccccc2)n1,154,> 10000,–
CCN(C(=O)c1ccc(Cl)cc1)c1ccnc(N[C@@H](C)c2ccccc2)n1,313,> 10000,–
C[C@H](Nc1nccc(N(CC2CCNCC2)C(=O)c2ccc3c(c2)CCO3)n1)c1ccccc1,54,15,94
CCc1cccc(C(=O)N(CC)c2ccnc(N[C@@H](C)c3ccccc3)n2)c1,65,152,–
CCN(C(=O)c1ccccc1Cl)c1ccnc(N[C@@H](C)c2ccccc2)n1,267,> 1000,–
CCN(C(=O)c1cccc(C)c1)c1ccnc(N[C@@H](C)c2ccccc2)n1,13,140,–
CC(C)Nc1nccc(N(CC2CCNCC2)C(=O)c2ccc3c(c2)CCO3)n1,24,88,2900
CCN(C(=O)c1cccc(Cl)c1)c1ccnc(N[C@@H](C)c2ccccc2)n1,81,533,–
O=C(c1ccc2c(c1)CCO2)N(CC1CCNCC1)c1ccnc(NC2CCC(O)CC2)n1 (stereo not drawn),360,3290,> 20000
CCN(C(=O)c1csc2ccccc12)c1ccnc(N[C@@H](C)c2ccccc2)n1,188,> 1000,–
COC[C@H](C)Nc1nccc(N(CC2CCNCC2)C(=O)c2ccc3c(c2)CCO3)n1,316,460,2020
O=C(c1ccc2c(c1)CCO2)N(CC1CCNCC1)c1ccnc(NC2CC2)n1,600,50,340
CC(C)(CO)Nc1nccc(N(CC2CCNCC2)C(=O)c2ccc3c(c2)CCO3)n1,3040,> 10000,1540
CCN(C(=O)c1ccc2ccccc2c1)c1ccnc(N[C@@H](C)c2ccccc2)n1,64,187,–
CCN(C(=O)c1cccc(C)c1C)c1ccnc(N[C@@H](C)c2ccccc2)n1,81,400,–
CCN(C(=O)c1cc2ccccc2o1)c1ccnc(N[C@@H](C)c2ccccc2)n1,179,> 10000,–
CCC(COC)Nc1nccc(N(CC2CCNCC2)C(=O)c2ccc3c(c2)CCO3)n1 (stereo not drawn),530,112,367
CCN(C(=O)c1cccc(C2CC2)c1)c1ccnc(N[C@@H](C)c2ccccc2)n1,104,349,–

# The next lines start with results.
IC50 [1] [nM],IC50 [2] [nM],SMILES,IC50 [3] [nM]
462,2090,CC(C)CN(C(=O)c1ccc2c(c1)CCO2)c1ccnc(N[C@@H](C)c2ccccc2)n1,–
91,143,CCN(C(=O)c1ccc(C)c(C)c1)c1ccnc(N[C@@H](C)c2ccccc2)n1,–
72,564,C[C@H](Nc1nccc(N(CCCS(C)(=O)=O)C(=O)c2ccc3c(c2)CCO3)n1)c1ccccc1,–
711,524,C[C@H](Nc1nccc(N(CC2CCN(C(N)=O)CC2)C(=O)c2ccc3c(c2)CCO3)n1)c1ccccc1,–
17,387,CCN(C(=O)c1ccc2c(c1)CCO2)c1ccnc(N[C@@H](C)c2ccccc2)n1,–
345,> 10000,COCCN(C(=O)c1ccc2c(c1)CCO2)c1ccnc(N[C@@H](C)c2ccccc2)n1,–
96,130,C[C@H](Nc1nccc(N(CCCCO)C(=O)c2ccc3c(c2)CCO3)n1)c1ccccc1,–
158,> 10000,C[C@H](Nc1nccc(N(CC2CCOCC2)C(=O)c2ccc3c(c2)CCO3)n1)c1ccccc1,–
> 10000,–,C[C@H](Nc1nccc(N(CC2CCCNC2)C(=O)c2ccc3c(c2)CCO3)n1)c1ccccc1 (stereo partly drawn),–
17,90,CC(C)Nc1nccc(N(CCCCN)C(=O)c2ccc3c(c2)CCO3)n1,3120
39,178,CCN(C(=O)c1ccc(F)c(C)c1)c1ccnc(N[C@@H](C)c2ccccc2)n1,–
90,829,CCN(C(=O)c1cccc2c1OCC2)c1ccnc(N[C@@H](C)c2ccccc2)n1,–
164,> 1000,CCN(C(=O)c1ccc2c(c1)OCO2)c1ccnc(N[C@@H](C)c2ccccc2)n1,–
71,313,CCN(C(=O)c1ccc2occc2c1)c1ccnc(N[C@@H](C)c2ccccc2)n1,–
180,> 1000,CCN(C(=O)c1ccc2c(c1)CCCC2)c1ccnc(N[C@@H](C)c2ccccc2)n1,–
165,704,C[C@H](Nc1nccc(N(CC2CC2)C(=O)c2ccc3c(c2)CCO3)n1)c1ccccc1,–
> 10000,–,C[C@H](Nc1nccc(N(CCCN)C(=O)c2ccc3c(c2)CCO3)n1)c1ccccc1,–
45,300,CCN(C(=O)c1ccc2c(c1)CCC2)c1ccnc(N[C@@H](C)c2ccccc2)n1,–
> 10000,–,C[C@H](Nc1nccc(N(CC2CCCCN2)C(=O)c2ccc3c(c2)CCO3)n1)c1ccccc1 (stereo partly drawn),–
673,> 10000,C[C@H](Nc1nccc(N(CC2CCN(S(N)(=O)=O)CC2)C(=O)c2ccc3c(c2)CCO3)n1)c1ccccc1,–
25,48,COC[C@H](C)Nc1nccc(N(CCCCN)C(=O)c2ccc3c(c2)CCO3)n1,2650
4,9,C[C@H](Nc1nccc(N(CCCCN)C(=O)c2ccc3c(c2)CCO3)n1)c1ccccc1,180
